Patent US8476264B2, “N-(3-(2-amino-6,6-difluoro-4,4A,5,6,7,7A-hexahydro-cyclopenta[E][1,3]oxazin-4-yl)-phenylamides as BACE1 inhibitors” (Hoffmann-La Roche Inc., priority 2011, dated 2013)

How the values were obtained:
CYP3A4 = target: T1, CYP3A4 (Homo sapiens, UniProt P08684); test: CYP inhibition assay, CYP3A4; type: in vitro ADME; conditions: human liver microsomes, midazolam 1' hydroxylase; read-out: CYP IC50 3A4
T1 construct: 0.2 mg/ml pooled human liver microsomes; from tissue; host or cells: pooled human liver microsomes
T1 sequence (P08684 whole entry): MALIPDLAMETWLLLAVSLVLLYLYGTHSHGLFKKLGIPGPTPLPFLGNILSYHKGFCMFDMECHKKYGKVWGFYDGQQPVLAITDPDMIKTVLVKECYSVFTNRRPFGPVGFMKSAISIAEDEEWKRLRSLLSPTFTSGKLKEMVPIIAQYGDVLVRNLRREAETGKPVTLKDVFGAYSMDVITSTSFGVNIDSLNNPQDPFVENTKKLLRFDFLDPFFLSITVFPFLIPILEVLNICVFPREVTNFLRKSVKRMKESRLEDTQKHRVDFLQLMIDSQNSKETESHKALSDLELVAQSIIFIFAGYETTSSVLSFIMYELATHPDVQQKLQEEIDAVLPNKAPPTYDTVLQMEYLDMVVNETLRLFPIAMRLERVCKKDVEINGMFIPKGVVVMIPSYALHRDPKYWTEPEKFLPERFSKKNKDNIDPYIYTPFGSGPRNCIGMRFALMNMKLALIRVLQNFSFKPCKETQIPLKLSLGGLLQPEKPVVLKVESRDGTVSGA
Experimental: (§1) Inhibition of cytochromes P450 (CYPs) 2C9, 2D6 and 3A4 was assessed using human liver microsomes and CYP-selective substrate metabolism reactions. 50 μl incubations were made up containing (finally) 0.2 mg/ml pooled human liver microsomes, 5 μM substrate (diclofenac for CYP2C9 [4′ hydroxylase], dextromethorphan for CYP2D6 [O-demethylase] or midazolam for CYP3A4 [1′ hydroxylase]), 0.25 μL DMSO containing test inhibitor and NADPH regenerating system. Test inhibitor concentrations of 50, 16.7, 5.6, 1.9, 0.6 and 0.2 μM were assessed in singlicate. Incubations were pre-warmed to 37° C. for 10 minutes before initiation by addition of NADPH regenerating system. Incubations were quenched after 5 minutes (20 minutes for dextromethorphan) by addition of 50 μl cold acetonitrile containing 20 ng/ml 4-OH-diclofenac-13C6, 20 ng/mL dextrorphan-D3 and 20 ng/mL 1-OH-midazolam-D4. Quenched incubates were stored at −20° C. for at least 1 hour before centrifugation (20,000×g, 20 minutes). Supernatants were removed and diluted 1:1 with water prior to analysis using a RapidFire sample injector system and API4000 mass spectrometer. Peak areas for substrate, metabolite and stable-labelled metabolite standard were determined using MS/MS. The peak area ratios between the metabolite generated by the enzymatic reaction and the internal standard were used in subsequent calculations. The percentage of (DMSO) control activity was calculated for each incubate and IC50 values estimated by non-linear regression. Sulfaphenazole, quinidine or ketoconazole were tested in each CYP2C9, CYP2D6 or CYP3A4 inhibition experiment, respectively, to ensure assay sensitivity and reproducibility. (Validated assays for human cytochrome P450 activities, R. L. Walsky and R. S. Obach, Drug Metabolism and Disposition 32: 647-660, 2004. and S. Fowler and H. Zhang, The AAPS Journal, Vol. 10, No. 2, 410-424, 2008.)

CYP2C9 = target: T2, CYP2C9 (Homo sapiens, UniProt P11712); test: CYP inhibition assay, CYP2C9; type: in vitro ADME; conditions: human liver microsomes, diclofenac 4' hydroxylase; read-out: CYP IC50 2C9
T2 construct: 0.2 mg/ml pooled human liver microsomes; from tissue; host or cells: pooled human liver microsomes
T2 sequence (P11712 whole entry): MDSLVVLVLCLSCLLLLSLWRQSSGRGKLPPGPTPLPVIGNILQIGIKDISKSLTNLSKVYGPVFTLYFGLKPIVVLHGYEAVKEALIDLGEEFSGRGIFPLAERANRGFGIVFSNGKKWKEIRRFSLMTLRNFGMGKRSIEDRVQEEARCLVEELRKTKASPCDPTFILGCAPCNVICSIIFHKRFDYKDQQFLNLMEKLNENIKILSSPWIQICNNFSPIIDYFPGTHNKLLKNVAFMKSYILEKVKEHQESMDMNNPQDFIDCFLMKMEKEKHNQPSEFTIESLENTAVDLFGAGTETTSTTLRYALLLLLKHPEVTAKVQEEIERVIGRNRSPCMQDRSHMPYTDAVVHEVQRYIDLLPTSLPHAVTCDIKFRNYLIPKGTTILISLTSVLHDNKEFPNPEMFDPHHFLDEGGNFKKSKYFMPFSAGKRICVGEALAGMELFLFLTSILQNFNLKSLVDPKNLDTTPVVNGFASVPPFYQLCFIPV
Experimental: as §1

[1] = target: T3, cathepsin D (from human liver) (Homo sapiens, UniProt P07339); test: Cathepsin D fluorescent substrate kinetic assay; type: biochemical; conditions: pH 5.5, substrate […]-MR121
T3 construct: cathepsin D (from human liver, Calbiochem) diluted in assay buffer; purchased Calbiochem; host or cells: purified from human liver
T3 sequence (P07339 65-162 limits assumed): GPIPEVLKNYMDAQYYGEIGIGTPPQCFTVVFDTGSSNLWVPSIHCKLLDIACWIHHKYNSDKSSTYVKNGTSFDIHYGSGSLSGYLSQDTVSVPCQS
T3 sequence (P07339 169-412 limits assumed): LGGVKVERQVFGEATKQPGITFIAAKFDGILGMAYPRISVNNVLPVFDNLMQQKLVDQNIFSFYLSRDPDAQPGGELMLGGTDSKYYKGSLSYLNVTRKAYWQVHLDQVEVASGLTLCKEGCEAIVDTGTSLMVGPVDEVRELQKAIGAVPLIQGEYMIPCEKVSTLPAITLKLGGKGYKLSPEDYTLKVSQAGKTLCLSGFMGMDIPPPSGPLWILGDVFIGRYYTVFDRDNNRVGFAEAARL
Source text: (§2) Cathepsin D and Cathepsin E Fluorescent Substrate Kinetic Assays
(§3) The MR121 fluorescence assays described below are based on the fact that MR121 forms a non-fluorescent ground state complex with tryptophan. In solution this formation occurs at millimolar concentrations of tryptophan. The mechanism can be used to design a generic biochemical assay for proteases. A substrate peptide is labeled at the N-terminus with tryptophan and at the C-terminus with the fluorophore MR121 (for cathepsin D the 10 amino acid peptide […]-MR121 was used; for cathepsin E, MR121-[…] was used). In absence of protease activity, the substrates remain intact and the MR121 fluorescence is reduced by the high local Trp-concentration. If the substrates are cleaved by the enzymes the MR121 fluorescence is recovered.
(§4) The fluorescent substrate cathepsin D and cathepsin E kinetic assays were performed at room temperature in 384-well microtiter plates (black with clear flat bottom, non binding surface plates from Corning) in a final volume of 51 μl. The test compounds were serially diluted in DMSO (15 concentrations, ⅓ dilution steps) and 1 μl of diluted compounds were mixed for 10 min with 40 μl of cathepsin D (from human liver, Calbiochem) diluted in assay buffer (100 mM sodium acetate, 0.05% BSA, pH 5.5; final concentration: 200 nM) or with 40 μl of recombinant human cathepsin E (R&D Systems) diluted in assay buffer (100 mM sodium acetate, 0.05% BSA, pH 4.5; final concentration: 0.01 nM). After addition of 10 μl of the cathepsin D substrate […]-MR121 diluted in cathepsin D assay buffer (final concentration: 300 nM) or […] cathepsin E substrate MR121-[…] diluted in cathepsin E assay buffer (final concentration: 300 nM), the plates were strongly shaken for 2 minutes. The enzymatic reaction was followed in a plate: vision reader (Perkin Elmer) (excitation wavelength: 630 nm; emission: 695 nm) for at least 30 minutes in a kinetic measurement detecting an increase of MR121 fluorescence during the reaction time. The slope in the linear range of the kinetic was calculated and the IC50 of the test compounds were determined using a four parameter equation for curve fitting.

[2] = target: T4, recombinant human cathepsin E (Homo sapiens, UniProt P14091); test: Cathepsin E fluorescent substrate kinetic assay; type: biochemical; conditions: pH 4.5, substrate MR121-[…]
T4 construct: purchased R&D Systems
T4 sequence (P14091 54-396): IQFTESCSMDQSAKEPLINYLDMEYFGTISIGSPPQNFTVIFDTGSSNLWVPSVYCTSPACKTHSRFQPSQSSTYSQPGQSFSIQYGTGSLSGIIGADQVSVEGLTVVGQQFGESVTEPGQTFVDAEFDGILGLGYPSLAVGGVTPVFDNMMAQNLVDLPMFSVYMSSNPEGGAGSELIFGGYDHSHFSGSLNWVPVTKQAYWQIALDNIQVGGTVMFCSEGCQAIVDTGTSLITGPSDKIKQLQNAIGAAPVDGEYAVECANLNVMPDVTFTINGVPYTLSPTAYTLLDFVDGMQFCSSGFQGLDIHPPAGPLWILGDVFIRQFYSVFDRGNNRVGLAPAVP
Source text: as §2, §3, §4

in vivo effect = conditions: % of control @ 30 mg/kg p.o.
BACE1 = target: T5, BACE1 (Homo sapiens, UniProt P56817); test: Cellular Aβ-lowering assay (Aβ40 ELISA); type: cell-based; conditions: HEK293 cells stably expressing human APP wt (APP695); Aβ40 in supernatant after 18-20 hrs; read-out: BACE1 cell act. Aβ40 IC50
T5 construct: Human HEK293 cells which are stably transfected with a vector expressing a cDNA of the human APP wt gene (APP695); endogenous in cells; host or cells: HEK293 stably transfected with human APP695 wt
T5 sequence (P56817 46-501): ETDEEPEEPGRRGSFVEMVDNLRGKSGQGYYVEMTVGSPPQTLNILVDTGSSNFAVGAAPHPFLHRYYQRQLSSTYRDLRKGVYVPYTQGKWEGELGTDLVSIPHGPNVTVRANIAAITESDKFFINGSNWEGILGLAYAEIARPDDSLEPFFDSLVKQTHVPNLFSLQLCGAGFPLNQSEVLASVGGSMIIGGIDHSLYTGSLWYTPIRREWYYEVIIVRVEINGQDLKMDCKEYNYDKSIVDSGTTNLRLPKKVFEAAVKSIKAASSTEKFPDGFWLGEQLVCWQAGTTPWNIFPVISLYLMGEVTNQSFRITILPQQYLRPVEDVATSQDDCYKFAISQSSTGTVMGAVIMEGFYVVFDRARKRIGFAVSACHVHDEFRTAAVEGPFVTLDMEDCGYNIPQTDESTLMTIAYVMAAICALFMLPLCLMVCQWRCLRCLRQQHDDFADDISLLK
Experimental: Cellular Aβ-Lowering Assay:
Human HEK293 cells which are stably transfected with a vector expressing a cDNA of the human APP wt gene (APP695) were used to assess the potency of the compounds in a cellular assay. The cells were seeded in 96-well microtiter plates in cell culture medium (Iscove, plus 10% (v/v) fetal bovine serum, glutamine, penicillin/streptomycin) to about 80% confluence and the compounds were added at a 10× concentration in 1/10 volume of medium without FCS containing 8% DMSO (final concentration of DMSO was kept at 0.8% v/v). After 18-20 hrs incubation at 37° C. and 5% CO2 in a humidified incubator the culture supernatant was harvested for the determination of Aβ40 concentrations. 96 well ELISA plates (e.g., Nunc MaxiSorb) were coated with monoclonal antibody which specifically recognize the C-terminal end of Aβ40 (Brockhaus et al., NeuroReport 9, 1481-1486; 1998). After blocking of non-specific binding sites with e.g. 1% BSA and washing, the culture supernatants were added in suitable dilutions together with a horseradish peroxidase-coupled Aβ detection antibody (e.g., antibody 4G8, Senetek, Maryland Heights, Mo.) and incubated for 5 to 7 hrs. Subsequently the wells of the microtiter plate were washed extensively with Tris-buffered saline containing 0.05% Tween 20 and the assay was developed with tetramethylbenzidine/H2O2 in citric acid buffer. After stopping the reaction with one volume 1 N H2SO4 the reaction was measured in an ELISA reader at 450 nm wavelength. The concentrations of Aβ in the culture supernatants were calculated from a standard curve obtained with known amounts of pure Aβ peptide.

[3] = Detection of glutathione conjugates; type: in vitro ADME, human; set-up: key: NF: in vitro no significant adduct formation relative to control; conditions: in vitro, relative to control
Source text: Detection of Glutathione Conjugates
The assay conditions for the detection of glutathione conjugates follow the procedure described by C. M. Dieckhaus et al.

CYP2D6 = target: T6, CYP2D6 (Homo sapiens, UniProt P10635); test: CYP inhibition assay, CYP2D6; type: in vitro ADME; conditions: human liver microsomes, dextromethorphan O-demethylase; read-out: CYP IC50 2D6
T6 construct: 0.2 mg/ml pooled human liver microsomes; from tissue; host or cells: pooled human liver microsomes
T6 sequence (P10635 whole entry): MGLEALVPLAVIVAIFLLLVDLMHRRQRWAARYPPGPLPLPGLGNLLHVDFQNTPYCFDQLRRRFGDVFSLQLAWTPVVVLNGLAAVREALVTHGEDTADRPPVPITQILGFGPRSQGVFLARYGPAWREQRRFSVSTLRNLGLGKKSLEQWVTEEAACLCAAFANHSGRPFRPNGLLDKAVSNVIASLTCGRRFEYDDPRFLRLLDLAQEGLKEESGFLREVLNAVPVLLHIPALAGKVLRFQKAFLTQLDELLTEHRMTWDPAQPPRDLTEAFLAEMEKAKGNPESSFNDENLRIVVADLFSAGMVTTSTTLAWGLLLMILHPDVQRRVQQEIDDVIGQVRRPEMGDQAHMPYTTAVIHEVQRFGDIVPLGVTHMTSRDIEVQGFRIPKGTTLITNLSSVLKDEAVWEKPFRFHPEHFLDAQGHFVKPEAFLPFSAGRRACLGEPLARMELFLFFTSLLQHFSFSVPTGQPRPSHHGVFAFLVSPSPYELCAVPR
Experimental: as §1

hERG channel = target: T7, hERG channel (Homo sapiens, UniProt Q12809); test: PatchXpress hERG inhibition assay; type: cell-based; conditions: @ 1 μM; CHO cells transfected with hERG, automated patch clamp
T7 construct: expressed in transfected cells; host or cells: CHO cells
T7 sequence (Q12809 whole entry): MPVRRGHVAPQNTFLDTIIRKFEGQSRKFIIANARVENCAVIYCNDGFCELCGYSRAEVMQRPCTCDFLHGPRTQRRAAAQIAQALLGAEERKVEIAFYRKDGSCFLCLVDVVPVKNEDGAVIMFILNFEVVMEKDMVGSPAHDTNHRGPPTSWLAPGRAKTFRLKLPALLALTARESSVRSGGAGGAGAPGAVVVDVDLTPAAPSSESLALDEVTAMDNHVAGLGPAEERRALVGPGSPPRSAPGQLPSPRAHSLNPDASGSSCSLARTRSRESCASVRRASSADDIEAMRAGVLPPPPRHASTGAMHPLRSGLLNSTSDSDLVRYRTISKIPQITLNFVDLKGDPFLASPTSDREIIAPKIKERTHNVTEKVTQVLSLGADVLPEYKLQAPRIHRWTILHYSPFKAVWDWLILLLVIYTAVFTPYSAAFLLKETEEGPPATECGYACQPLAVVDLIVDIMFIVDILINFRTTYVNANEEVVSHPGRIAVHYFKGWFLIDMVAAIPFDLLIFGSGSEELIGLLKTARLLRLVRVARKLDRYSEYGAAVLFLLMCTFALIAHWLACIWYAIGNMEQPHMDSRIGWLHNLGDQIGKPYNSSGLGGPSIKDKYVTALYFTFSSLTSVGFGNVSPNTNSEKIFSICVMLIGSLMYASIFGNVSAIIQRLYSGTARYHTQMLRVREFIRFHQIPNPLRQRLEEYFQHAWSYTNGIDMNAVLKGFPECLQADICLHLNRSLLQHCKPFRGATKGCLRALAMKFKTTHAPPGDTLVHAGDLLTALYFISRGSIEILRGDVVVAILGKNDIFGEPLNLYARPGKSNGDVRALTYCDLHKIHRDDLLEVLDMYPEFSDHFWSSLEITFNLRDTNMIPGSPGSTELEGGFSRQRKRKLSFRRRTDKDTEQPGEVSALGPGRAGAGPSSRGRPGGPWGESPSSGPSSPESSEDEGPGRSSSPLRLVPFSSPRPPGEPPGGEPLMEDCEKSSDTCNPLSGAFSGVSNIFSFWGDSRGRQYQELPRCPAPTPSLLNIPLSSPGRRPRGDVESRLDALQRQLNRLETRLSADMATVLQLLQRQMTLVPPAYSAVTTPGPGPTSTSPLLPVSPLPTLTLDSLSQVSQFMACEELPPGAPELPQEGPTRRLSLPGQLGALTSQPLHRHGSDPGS
Experimental: PatchXpress hERG Inhibition Assay
The detailed method to quantify hERG channel inhibition by the automated patch clamp system PatchXpress® 7000A (Molecular Devices, Sunnyvale, Calif.) has been described by Guo et al. (J of Pharmacol & Tox Methods, (2005) 52(1):123-35). In brief, Chinese hamster ovary (CHO) cells transfected with the human ether-a-go-go-related gene (hERG) was cultured in Ex-cell 302 media supplemented with 10% fetal bovine serum, 2 mM glutamine and 0.25 mg/ml geneticin and maintained in a CO2 incubator at 37° C. For patch clamp electrophysiology, the external buffer contained (in mM): 150 NaCl, 10 Hepes, 4 KCl, 1.2 CaCl2, 1 MgCl2, pH 7.4 adjusted with […] and the internal recording solution contained (in mM): 140 KCl, 6 EGTA, 5 Hepes, MgCl2, 5 ATP-Na2, pH 7.2 adjusted with KOH. Once the cell was loaded in the recording chamber and formed a giga ohm seal with the planar glass electrodes (Sealchip™), a whole-cell configuration was achieved by rupturing the cell membrane. The membrane potential was then clamped at −80 mV and the hERG channel activated by a 1-second depolarizing pulse delivered at 0.1 Hz, the hERG current was measured during the 500 ms-repolarizing pulse to −40 mV. After an acceptable hERG current recording was obtained, the cell was first exposed to 0.3% DMSO as the vehicle control, followed by the test article in three ascending, full-log interval concentrations and finally E-4031 at 1 μM (as the positive control) to block the hERG current completely. […] The inhibition of hERG current at each concentration was normalized to that recorded in the vehicle control, and fitted with Hill equation to calculate IC20 and/or IC50.

IC50 (CYP3A4) [µM]	IC50 (CYP2C9) [µM]	IC50 [1] [µM]	IC50 [2] [µM]	IC50 (BACE1) [µM]	GSH human (glutathione adduct formation) [3]	IC50 (CYP2D6) [µM]	SMILES	in vivo effect (in vivo effect)	hERG inhibition (hERG channel)
> 10	> 10	52	133	0.0004	NF	1 to 10	C[C@]1(c2cc(NC(=O)c3ccc(Cl)cn3)ccc2F)N=C(N)O[C@@H]2CC(F)(F)C[C@@H]21 [Example 1, 5-Chloro-pyridine-2-carboxylic acid [3-((4S,4aR,7aR)-2-amino-6,6-difluoro-4-methyl-4,4a,5,6,7,7a-hexahydro-cyclopenta[e][1,3]oxazin-4-yl)-4-fluoro-phenyl]-amide]	A (less than 50% of control @ 30 mg/kg p.o.)	–
> 10	> 10	120	101	–	NF	> 10	C[C@]1(c2cc(NC(=O)c3ccc(C#N)cn3)ccc2F)N=C(N)O[C@@H]2CC(F)(F)C[C@@H]21 [Example 2, 5-Cyano-pyridine-2-carboxylic acid [3-((4S,4aR,7aR)-2-amino-6,6-difluoro-4-methyl 4,4a,5,6,7,7a-hexahydro-cyclopenta[e][1,3]oxazin-4-yl)-4-fluoro-phenyl]-amide]	A (less than 50% of control @ 30 mg/kg p.o.)	A (less than 20% inhibition @ 1 μM)
